Data taken from US20110287108A1 (priority 2008, published 2011).
Counter-ions that a name gives are not always drawn. Like-named read-outs stand apart in the source and are kept apart here.

Test system: Phytophthora infestans
Format: in vivo
Conditions: tomato plants
[1] = protective, 3 days after inoculation, 0.25 ppm a.i.
[2] = protective, 3 days after inoculation, 0.5 ppm a.i.
[3] = protective, 3 days after inoculation, 12.5 ppm a.i.

| Compound | Efficacy in % found [1] [%] | Efficacy in % found [3] [%] | also measured |
| --- | --- | --- | --- |
| O=C(NCc1ncc(C(F)(F)F)cc1Cl)c1c(Cl)cccc1Cl [fluopicolide] | 4 |  |  |
| COc1ccc(C(=CC(=O)N2CCOCC2)c2ccc(Cl)cc2)cc1OC [dimethomorph] |  |  | Efficacy in % found [2]: 35% |
| N#Cc1c(Cl)c(Cl)c(Cl)c(C#N)c1Cl [chlorothalonil] |  | 19 |  |
| CCCOC(=O)NCCCN(C)C [propamocarb-HCl] |  |  | Efficacy in % found (protective, 3 days after inoculation, 25 ppm a.i.): 24% |
| [Cl-].[Cu+2].[Cu+2].[OH-].[OH-].[OH-] [copper oxychloride] |  | 58 |  |
| fosetyl-aluminium |  | 42 |  |
| CC(C)[C@H](NC(=O)O)C(=O)N[C@H](C)c1nc2ccc(F)cc2s1 [benthiavalicarb] | 16 |  |  |
| CCC(C)(NC(=O)c1cc(Cl)c(C)c(Cl)c1)C(=O)CCl (stereo not drawn) [zoxamide] | 18 |  |  |
| OP(O)O [phosporous acid] |  | 33 |  |
| CCCCCCNc1cccc(CON=C(c2ccccc2)c2nnnn2C)n1 [N-hexyl-6-[({[(1-methyl-1H-tetrazol-5-yl)(phenyl)methylene]amino}oxy)-methyl]pyridin-2-amine] | 48 |  | Efficacy in % found [2]: 63% |
| CCCCCNc1cccc(CON=C(c2ccccc2)c2nnnn2C)n1 [6-[({[(1-methyl-1H-tetrazol-5-yl)(phenyl)methylene]amino}oxy)methyl]-N-pentylpyridin-2-amine] |  |  | Efficacy in % found (protective spray, evaluated 3 days after inoculation, application rate cell empty): 69% |
